Experimental data: patent US20200131454A1, “ALCOHOL CONTAINING BIOFIILM-INHIBITING NON-ANTIMICROBIAL CLEANSING COMPOSITION” (GOJO Industries, Inc., priority 2018, published 2020)

Assays:
[1] = Forearm controlled application test (FCAT), transepidermal water loss (TEWL); format: in vivo, human
Method: Topical compositions were tested on skin samples for their ability to improve or maintain skin hydration and limit transepidermal water loss (TEWL). Measurement of the TEWL, expressed in grams per square meter and per hour, is used for studying the water barrier function of the human skin. The more perfect the skin protective coat, the higher the water content and the lower the TEWL. For each of the tests, a negative control was used, which included treatment with 8% SLS. An untreated skin sample was also tested for comparison. The tests were performed using the forearm controlled application test (FCAT) methodology. The various samples were applied to test sites on a forearm over the course of several days. On each day, up to six applications were made and the change in TEWL and hydration levels were recorded. The hydration levels were measured using a Corneometer® based on capacitance measurement of a dielectric medium. The Corneometer® measures the change in the dielectric constant due to skin surface hydration changing the capacitance of a precision capacitor. The measurement can detect even slight changes in the hydration level. The change in TEWL and hydration levels represent the change observed for that particular sample compared to a baseline (the transepidermal water content or hydration level prior to treatment). […]

[2] = Forearm controlled application test (FCAT), skin hydration by Corneometer; format: in vivo, human
Method: Topical compositions were tested on skin samples for their ability to improve or maintain skin hydration and limit transepidermal water loss (TEWL). Measurement of the TEWL, expressed in grams per square meter and per hour, is used for studying the water barrier function of the human skin. The more perfect the skin protective coat, the higher the water content and the lower the TEWL. For each of the tests, a negative control was used, which included treatment with 8% SLS. An untreated skin sample was also tested for comparison. The tests were performed using the forearm controlled application test (FCAT) methodology. The various samples were applied to test sites on a forearm over the course of several days. On each day, up to six applications were made and the change in TEWL and hydration levels were recorded. The hydration levels were measured using a Corneometer® based on capacitance measurement of a dielectric medium. The Corneometer® measures the change in the dielectric constant due to skin surface hydration changing the capacitance of a precision capacitor. The measurement can detect even slight changes in the hydration level.
The change in TEWL and hydration levels represent the change observed for that particular sample compared to a baseline (the transepidermal water content or hydration level prior to treatment). […]

TEWL ([1]; Example 1, FIG. 6, change compared to baseline): highest TEWL
change in TEWL ([1]; Example 2, FIG. 7, wet and dry application, 3 and 5 days of treatment): significant TEWL
hydration levels ([2]; Example 1, FIG. 5, change compared to baseline): lowest hydration levels
change in hydration levels ([2]; Example 2, FIG. 8, wet and dry application, 3 and 5 days of treatment): significant reduction in hydration level
Structure (SMILES): CCCCCCCCCCCCOS(=O)(=O)[O-].[Na+] [negative control, SLS]
